For 34 compounds, melting point results are on record in a melting point compilation (Tetko et al.; mined from patent text by program, amines drawn as free bases though some values may be those of a salt).

The term melting point denotes the temperature, or range, at which the solid turns liquid. As to `O=C(O)C(O)=CC(=O)c1cc(Cc2ccc(F)cc2)cn(Cc2ccccc2F)c1=O`, the melting point was 182 to 184 °C.

`Cn1c(C(F)(F)F)cc(=O)n(-c2cc(OCCCl)c(Cl)cc2F)c1=O`: the melting point was in the range of 100 to 103 °C.

For the compound `Fc1ccc(-c2cc(C(F)(F)F)n3ncc(-c4ccccn4)c3n2)cc1Cl`, the melting point is 197 °C.

Turning to `O=C(O)C=Cc1cc(Cl)ccc1C(=O)O`, the melting point was 200 to 202 °C.

In turn, `CC(C1CC(c2ccc(C(F)(F)F)cc2)C1)N(O)C(N)=O` (centres undefined) showed a melting point of 147 to 148 °C.

As to `O=C1O[C@@H](CNC(=S)C(F)F)CN1c1cc(F)c(N2CCS(=O)(=O)CC2)c(F)c1`, the melting point fell in the range of 88 to 90 °C.

The compound `O=C1C=C(c2c(-c3ccccc3)nn3ccccc23)CCN1` had a melting point of 188 to 189 °C.

Regarding `CCCCCCCCC(SCCCCCC)C(=O)Nc1c(SC)cc(C)nc1SC` (centres undefined), the melting point was 75 to 76.5 °C.

As to `CCOC(=O)N1CCC(NS(=O)(=O)c2ccc3ccccc3c2)CC1`, the melting point amounted to 128 °C.

The compound `CC1(C)CCC(C)(C)c2cc(C(=O)c3ccc(C(O)=NO)cc3)c(OCc3ccc(Br)cc3)cc21` had a melting point of 221 to 224 °C.

With `CC(C)CNc1c(N)c2nnnn2c2ccccc12`, the melting point is 148 to 150 °C.

In the case of `COc1cc2c(cc1Nc1ncc(Cl)c(Nc3ccccc3S(C)(=O)=O)n1)CCN(CC(=O)N(C)C)CC2`, the melting point is 77 to 99 °C.

The compound `COC(=O)c1cccc2[nH]c(=O)n(Cc3ccc(-c4ccccc4C#N)cc3)c12` yielded a melting point of 250 to 253 °C.

For `O=C(O)C1=CSC2C(=CC3=CN4CCCCCC4N3)C(=O)N12` (centres undefined), the melting point was greater than 250 °C.

Compound `O=c1ncc(Br)cn1CCCl` had a melting point of 185 to 186 °C.

As for `CC(=O)OC1OCC[C@@H]1NC(=O)CCC(=O)Nc1ccc(Nc2ccccc2)cc1` (some centres undefined), the melting point was in the range of 191 to 192 °C.

As to `COc1ccc(SCCCCCCCC(=O)O)cc1`, the melting point lay in the range of 66 to 68 °C.

Consider `CSC(=NC(=O)NC(C)C)NC(=O)NC(C)C`, for which the melting point lay in the range of 125 to 127 °C.

Compound `COP(=O)(CCc1cccc2c1O[C@H]1C[C@@H](O)[C@H](CO)[C@@H]21)OC` came in with a melting point of 106 to 107 °C.

Compound `FC(F)(F)C1(c2cc(Cl)cc(Cl)c2)CCN(c2ccc(-n3cnnn3)c(Br)c2)C1` (centres undefined) gave a melting point of 193 to 194 °C.

In turn, `CC(C)c1noc(-c2ncn3c4cccc(Cl)c4c(=O)n(C)c23)n1` yielded a melting point of 209 °C.

`FC(F)(F)c1cc(-c2ccc(Cl)nn2)ccc1Cl`: the melting point fell in the range of 211 to 214 °C.

As for `O=C1C(C(c2ccccc2)c2ccccc2)NC2CCCC3C(C2)C13` (centres undefined), the melting point was 178 to 181 °C.

On to `Cn1ncc(C(=O)N2CCOCC2)c1C(=O)Nc1ccc2nc(-c3cccnc3)nn2c1`, for which the melting point came out at 229 °C.

For the compound `CC(C)(C)OC(=O)N[C@@H](Cc1ccc(O)cc1)C(=O)NCCCN1CCN(CCCNc2cccc3c2C(=O)c2ccccc2C3=O)CC1`, the melting point came to 102 °C.

`CCC1(CCCCl)C(=O)Nc2ccc(Cl)cc21` (centres undefined): the melting point was 105 to 107 °C.

For the compound `CCOC(=O)c1ccc2c(c1)CCC(Cc1cnc(N)s1)C2` (centres undefined), the melting point fell in the range of 150 to 153 °C.

The compound `NC1N=CC=CC1(N)Br` (centres undefined) yielded a melting point of 158 to 160 °C.

For `COC(=O)c1cc(OC)c(Cc2c(N)nc(N)nc2Cl)c(OC)c1`, the melting point was in the range of 228 to 229 °C.

Turning to `CCC(=O)N1N=C(c2ccc([N+](=O)[O-])cc2)c2cc(Br)ccc2CC1C` (centres undefined), the melting point lay in the range of 178 to 180 °C.

On to `COc1cc2c(cc1OC)C(C)(C)Oc1c-2c(OC)cc2oc(C(=O)O)cc(=O)c12`, for which the melting point was in the range of 263 to 264 °C.

The compound `O=C(NCc1ccc(Cl)cc1)c1cn(N2CCCCC2)c2ccc(CN3CCOCC3)cc2c1=O` had a melting point of 161 to 164 °C.

In turn, `CCCCCCCCCCCC=CC(O)C(COC1OC(CO)C(O)C(O)C1O)NC(=O)CCCCCCCCCCCCCCC` (centres undefined) yielded a melting point of 207 to 209 °C.

For the compound `CCn1cc(S(=O)(=O)NC(=O)c2cn3cc(C(F)(F)F)cc(Cl)c3n2)c(Cl)n1`, the melting point fell in the range of 184 to 185 °C.
